Laboratory results from ChEMBL document CHEMBL1287680, “C-11 diamino cryptolepine derivatives NSC748392, NSC748393, and NSC748394: anticancer profile and G-quadruplex stabilization” (Bioorg Med Chem Lett, 2010).

Tests used:
HCT-116 = assay: cells; details: Homo sapiens
Description: Anticancer activity against human HCT116 cells

MDA-MB-231 = assay: cells; details: Homo sapiens
Description: Anticancer activity against human MDA-MB-231 cells

HCT-15 = assay: cells; details: Homo sapiens
Description: Anticancer activity against human HCT15 cells

BT-549 = assay: cells; details: Homo sapiens
Description: Anticancer activity against human BT549 cells

HL-60(TB) = assay: cells; details: Homo sapiens
Description: Anticancer activity against human HL-60(TB) cells

RXF 393 = assay: cells; details: Homo sapiens
Description: Anticancer activity against human RXF393 cells

ACHN = assay: cells; details: Homo sapiens
Description: Anticancer activity against human ACHN cells

TK-10 = assay: cells; details: Homo sapiens
Description: Anticancer activity against human TK10 cells

SK-OV-3 = assay: cells; details: Homo sapiens
Description: Anticancer activity against human SKOV3 cells

HOP-92 = assay: cells; details: Homo sapiens
Description: Anticancer activity against human HOP92 cells

HCC 2998 = assay: cells; details: Homo sapiens
Description: Anticancer activity against human HCC2998 cells

786-0 = assay: cells; details: Homo sapiens
Description: Anticancer activity against human 786-0 cells

SNB-75 = assay: cells; details: Homo sapiens
Description: Anticancer activity against human SNB75 cells

MOLT-4 = assay: cells; details: Homo sapiens
Description: Anticancer activity against human MOLT4 cells

MDA-MB-468 = assay: cells; details: Homo sapiens
Description: Anticancer activity against human MDA-MB-468 cells

UACC-62 = assay: cells; details: Homo sapiens
Description: Anticancer activity against human UACC62 cells

CAKI-1 = assay: cells; details: Homo sapiens
Description: Anticancer activity against human Caki1 cells

NCI/ADR-RES = assay: cells; details: Homo sapiens
Description: Anticancer activity against human NCI/ADR-RES cells

A549 = assay: cells; details: Homo sapiens
Description: Anticancer activity against human A549 cells

in vivo = details: mouse, cancer cell lines
Description: Toxicity in cancer cells containing hollow fiber implanted mouse

U-251 = assay: cells; details: Homo sapiens
Description: Anticancer activity against human U251 cells

SF-268 = assay: cells; details: Homo sapiens
Description: Anticancer activity against human SF268 cells

SF-295 = assay: cells; details: Homo sapiens
Description: Anticancer activity against human SF295 cells

Vero = assay: cells; details: Chlorocebus sabaeus, 48 h
Description: Cytotoxicity against african green monkey Vero cells after 48 hrs by MTT assay

HT-29 = assay: cells; details: Homo sapiens
Description: Anticancer activity against human HT-29 cells

SNB-19 = assay: cells; details: Homo sapiens
Description: Anticancer activity against human SNB19 cells

NCI-H226 = assay: cells; details: Homo sapiens
Description: Anticancer activity against human NCI-H226 cells

OVCAR-5 = assay: cells; details: Homo sapiens
Description: Anticancer activity against human OVCAR5 cells

cells = details: Homo sapiens, Hs-578T
Description: Anticancer activity against human Hs 578T cells

CCRF-CEM = assay: cells; details: Homo sapiens
Description: Anticancer activity against human CCRF-CEM cells

SK-MEL-28 = assay: cells; details: Homo sapiens
Description: Anticancer activity against human SK-MEL-28 cells

UACC-257 = assay: cells; details: Homo sapiens
Description: Anticancer activity against human UACC257 cells

For C[n+]1c2ccccc2c(NC2CCNCC2)c2[nH]c3ccccc3c21.[Cl-], the GI50 (HCT-116; HCT-116, read-out: pGI50 (converted)) was 0.813 µM, the CC50 (HCT-116; HCT-116, read-out: pLC50 (converted)) was > 100 µM and the TGI (HCT-116; HCT-116, read-out: pTGI) was 4.9 µM. It also gave a GI50 (MDA-MB-231; MDA-MB-231, read-out: pGI50 (converted)) of 1.1 µM, a CC50 (MDA-MB-231; MDA-MB-231, read-out: pLC50 (converted)) of 52.5 µM and a TGI (MDA-MB-231; MDA-MB-231, read-out: pTGI) of 9.77 µM. The GI50 (HCT-15; HCT-15, read-out: pGI50 (converted)) was 23.4 µM, the CC50 (HCT-15; HCT-15, read-out: pLC50 (converted)) was > 100 µM and the TGI (HCT-15; HCT-15, read-out: pTGI) was > 100 µM. The GI50 (BT-549; BT-549, read-out: pGI50 (converted)) was 2.75 µM, the CC50 (BT-549; BT-549, read-out: pLC50 (converted)) was 57.5 µM and the TGI (BT-549; BT-549, read-out: pTGI) was 16.6 µM. For the same compound, the GI50 (HL-60(TB); HL-60, read-out: pGI50 (converted)) was 2.19 µM, the CC50 (HL-60(TB); HL-60, read-out: pLC50 (converted)) was > 100 µM and the TGI (HL-60(TB); HL-60, read-out: pTGI) was > 100 µM. The GI50 (RXF 393; RXF 393, read-out: pGI50 (converted)) was 1.62 µM, the CC50 (RXF 393; RXF 393, read-out: pLC50 (converted)) was 26.3 µM and the TGI (RXF 393; RXF 393, read-out: pTGI) was 4.9 µM. The GI50 (ACHN; read-out: pGI50 (converted)) was 11.5 µM, the CC50 (ACHN; read-out: pLC50 (converted)) was > 100 µM and the TGI (ACHN; read-out: pTGI) was 64.6 µM. For the same compound, the GI50 (TK-10; TK-10, read-out: pGI50 (converted)) was 3.09 µM, the CC50 (TK-10; TK-10, read-out: pLC50 (converted)) was > 100 µM and the TGI (TK-10; TK-10, read-out: pTGI) was 14.5 µM. For the same compound, the GI50 (SK-OV-3; SK-OV-3, read-out: pGI50 (converted)) was 0.447 µM, the CC50 (SK-OV-3; SK-OV-3, read-out: pLC50 (converted)) was 77.6 µM and the TGI (SK-OV-3; SK-OV-3, read-out: pTGI) was 3.89 µM. The GI50 (HOP-92; HOP-92, read-out: pGI50 (converted)) was 1.15 µM, the CC50 (HOP-92; HOP-92, read-out: pLC50 (converted)) was > 100 µM and the TGI (HOP-92; HOP-92, read-out: pTGI) was 6.92 µM. The GI50 (HCC 2998; HCC 2998, read-out: pGI50 (converted)) was 0.324 µM, the CC50 (HCC 2998; HCC 2998, read-out: pLC50 (converted)) was 5.25 µM and the TGI (HCC 2998; HCC 2998, read-out: pTGI) was 1.7 µM. For the same compound, the GI50 (786-0; 786-0, read-out: pGI50 (converted)) was 3.47 µM, the CC50 (786-0; 786-0, read-out: pLC50 (converted)) was > 100 µM and the TGI (786-0; 786-0, read-out: pTGI) was 18.2 µM. For the same compound, the GI50 (SNB-75; SNB-75, read-out: pGI50 (converted)) was 1.38 µM, the CC50 (SNB-75; SNB-75, read-out: pLC50 (converted)) was 24.5 µM and the TGI (SNB-75; SNB-75, read-out: pTGI) was 5.37 µM. The GI50 (MOLT-4; MOLT-4, read-out: pGI50 (converted)) was 0.138 µM, the CC50 (MOLT-4; MOLT-4, read-out: pLC50 (converted)) was > 100 µM and the TGI (MOLT-4; MOLT-4, read-out: pTGI) was > 100 µM. For the same compound, the GI50 (MDA-MB-468; MDA-MB-468, read-out: pGI50 (converted)) was 0.234 µM, the CC50 (MDA-MB-468; MDA-MB-468, read-out: pLC50 (converted)) was 6.92 µM and the TGI (MDA-MB-468; MDA-MB-468, read-out: pTGI) was 1.58 µM. It also gave a GI50 (UACC-62; UACC-62, read-out: pGI50 (converted)) of 0.2 µM, a CC50 (UACC-62; UACC-62, read-out: pLC50 (converted)) of 3.63 µM and a TGI (UACC-62; UACC-62, read-out: pTGI) of 0.933 µM. The GI50 (CAKI-1; CAKI-1, read-out: pGI50 (converted)) was 15.1 µM, the CC50 (CAKI-1; CAKI-1, read-out: pLC50 (converted)) was > 100 µM and the TGI (CAKI-1; CAKI-1, read-out: pTGI) was 60.3 µM. The GI50 (NCI/ADR-RES; read-out: pGI50 (converted)) was > 100 µM, the CC50 (NCI/ADR-RES; read-out: pLC50 (converted)) was > 100 µM and the TGI (NCI/ADR-RES; read-out: pTGI) was > 100 µM. The GI50 (A549; A549, read-out: pGI50 (converted)) was 0.0776 µM, the CC50 (A549; A549, read-out: pLC50 (converted)) was > 100 µM and the TGI (A549; A549, read-out: pTGI) was 13.8 µM. The MTD (in vivo) was 25 mg/kg, the GI50 (U-251; U-251, read-out: pGI50 (converted)) was 0.282 µM and the CC50 (U-251; U-251, read-out: pLC50 (converted)) was > 100 µM. For the same compound, the TGI (U-251; U-251, read-out: pTGI) was 2.95 µM, the GI50 (SF-268; SF-268, read-out: pGI50 (converted)) was 0.0457 µM and the CC50 (SF-268; SF-268, read-out: pLC50 (converted)) was 42.7 µM. The TGI (SF-268; SF-268, read-out: pTGI) was 1.38 µM, the GI50 (SF-295; SF-295, read-out: pGI50 (converted)) was 0.741 µM and the CC50 (SF-295; SF-295, read-out: pLC50 (converted)) was 77.6 µM. The TGI (SF-295; SF-295, read-out: pTGI) was 10.2 µM, the IC50 (Vero) was 10 µM and the GI50 (HT-29; HT-29, read-out: pGI50 (converted)) was 0.209 µM. The CC50 (HT-29; HT-29, read-out: pLC50 (converted)) was 70.8 µM, the TGI (HT-29; HT-29, read-out: pTGI) was 10.2 µM and the GI50 (SNB-19; SNB-19, read-out: pGI50 (converted)) was 0.275 µM. The CC50 (SNB-19; SNB-19, read-out: pLC50 (converted)) was > 100 µM, the TGI (SNB-19; SNB-19, read-out: pTGI) was 2.57 µM and the GI50 (NCI-H226; NCI-H226, read-out: pGI50 (converted)) was 0.537 µM. It also gave a CC50 (NCI-H226; NCI-H226, read-out: pLC50 (converted)) of 28.8 µM, a TGI (NCI-H226; NCI-H226, read-out: pTGI) of 3.24 µM and a GI50 (OVCAR-5; OVCAR-5, read-out: pGI50 (converted)) of 1.66 µM. The CC50 (OVCAR-5; OVCAR-5, read-out: pLC50 (converted)) was > 100 µM, the TGI (OVCAR-5; OVCAR-5, read-out: pTGI) was 17 µM and the GI50 (cells; read-out: pGI50 (converted)) was 0.12 µM. The CC50 (cells; read-out: pLC50 (converted)) was 44.7 µM, the TGI (cells; read-out: pTGI) was 1.12 µM and the GI50 (CCRF-CEM; read-out: pGI50 (converted)) was 0.457 µM. The CC50 (CCRF-CEM; read-out: pLC50 (converted)) was 52.5 µM, the TGI (CCRF-CEM; read-out: pTGI) was 3.02 µM and the GI50 (SK-MEL-28; SK-MEL-28, read-out: pGI50 (converted)) was 1.05 µM. For the same compound, the CC50 (SK-MEL-28; SK-MEL-28, read-out: pLC50 (converted)) was 10.5 µM, the TGI (SK-MEL-28; SK-MEL-28, read-out: pTGI) was 3.24 µM and the GI50 (UACC-257; UACC-257, read-out: pGI50 (converted)) was 5.37 µM. It also gave a CC50 (UACC-257; UACC-257, read-out: pLC50 (converted)) of 81.3 µM and a TGI (UACC-257; UACC-257, read-out: pTGI) of 24 µM.
